Blank lines part the entries; values can stand above or below the compound they belong to.
What was measured:
[1] = Solubility of the compound; assay type: physicochemical
[2] = Efflux ratio of permeability from basolateral to apical over apical to basolateral side in human Caco2 cells; assay type: ADME, cell-based; conditions: Caco-2
MAPK3 (ERK1) = assay: Inhibition of human MAPK3 (2 to 379 residues) assessed as enzyme activity at 1 uM using 33P ATP by radioactive filter binding assay; parameters: scale not given: the % may be the effect or the level left
Homo sapiens = species on record: Homo sapiens; assay: Selectivity ratio of IC50 for PI3K alpha (unknown origin) to IC50 for human His6-tagged PDK1
[3] = molecular target: Phosphatidylinositol 4,5-bisphosphate 3-kinase catalytic subunit alpha isoform (Homo sapiens, UniProt P42336); assay: Inhibition of PI3K alpha (unknown origin) at 10 uM
[4] = molecular target: Serine/threonine-protein kinase PAK 2 (Homo sapiens) (UniProt Q13177); assay: Inhibition of human PAK2 (1 to 524 residues) assessed as enzyme activity at 1 uM using 33P ATP by radioactive filter binding assay; parameters: scale not given: the % may be the effect or the level left
[5] = molecular target: Homeodomain-interacting protein kinase 1 (Homo sapiens) (UniProt Q86Z02); assay: Inhibition of human HIPK1 (158 to 555 residues) assessed as enzyme activity at 1 uM using 33P ATP by radioactive filter binding assay; parameters: scale not given: the % may be the effect or the level left
[6] = molecular target: Eukaryotic translation initiation factor 2-alpha kinase 3 (Homo sapiens) (UniProt Q9NZJ5); assay: Inhibition of human EIF2AK3 (536 to 1116 residues) assessed as enzyme activity at 1 uM using 33P ATP by radioactive filter binding assay; parameters: scale not given: the % may be the effect or the level left
[7] = molecular target: Dual specificity mitogen-activated protein kinase kinase 2 (Homo sapiens) (UniProt P36507); assay: Inhibition of human MKK2 (2 to 400 residues) assessed as enzyme activity at 1 uM using 33P ATP by radioactive filter binding assay; parameters: scale not given: the % may be the effect or the level left
[8] = molecular target: Casein kinase II subunit alpha (Homo sapiens) (UniProt P68400); assay: Inhibition of human CK2alpha (2 to 391 residues) assessed as enzyme activity at 1 uM using 33P ATP by radioactive filter binding assay; parameters: scale not given: the % may be the effect or the level left
Casein kinase II subunit alpha (Homo sapiens), sequence (P68400 whole entry, looked up, the tested form may be a part): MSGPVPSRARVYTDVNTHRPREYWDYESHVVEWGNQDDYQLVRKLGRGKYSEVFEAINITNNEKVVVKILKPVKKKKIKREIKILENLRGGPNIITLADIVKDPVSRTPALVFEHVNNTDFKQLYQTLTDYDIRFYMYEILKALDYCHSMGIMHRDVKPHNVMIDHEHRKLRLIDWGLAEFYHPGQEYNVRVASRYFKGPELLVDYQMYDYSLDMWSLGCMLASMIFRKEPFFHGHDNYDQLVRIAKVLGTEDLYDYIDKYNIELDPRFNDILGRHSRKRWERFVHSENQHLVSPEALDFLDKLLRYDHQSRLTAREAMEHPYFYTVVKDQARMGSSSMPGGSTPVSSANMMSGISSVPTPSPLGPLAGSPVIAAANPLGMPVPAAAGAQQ

[9] = molecular target: Mitogen-activated protein kinase kinase kinase 7 (Homo sapiens) (UniProt O43318); assay: Inhibition of human TAB1 fused TAK1 (1 to 303 residues) assessed as enzyme activity at 1 uM using 33P ATP by radioactive filter binding assay; parameters: scale not given: the % may be the effect or the level left
Mitogen-activated protein kinase kinase kinase 7 (Homo sapiens), sequence (O43318 whole entry, the tested form may be a part): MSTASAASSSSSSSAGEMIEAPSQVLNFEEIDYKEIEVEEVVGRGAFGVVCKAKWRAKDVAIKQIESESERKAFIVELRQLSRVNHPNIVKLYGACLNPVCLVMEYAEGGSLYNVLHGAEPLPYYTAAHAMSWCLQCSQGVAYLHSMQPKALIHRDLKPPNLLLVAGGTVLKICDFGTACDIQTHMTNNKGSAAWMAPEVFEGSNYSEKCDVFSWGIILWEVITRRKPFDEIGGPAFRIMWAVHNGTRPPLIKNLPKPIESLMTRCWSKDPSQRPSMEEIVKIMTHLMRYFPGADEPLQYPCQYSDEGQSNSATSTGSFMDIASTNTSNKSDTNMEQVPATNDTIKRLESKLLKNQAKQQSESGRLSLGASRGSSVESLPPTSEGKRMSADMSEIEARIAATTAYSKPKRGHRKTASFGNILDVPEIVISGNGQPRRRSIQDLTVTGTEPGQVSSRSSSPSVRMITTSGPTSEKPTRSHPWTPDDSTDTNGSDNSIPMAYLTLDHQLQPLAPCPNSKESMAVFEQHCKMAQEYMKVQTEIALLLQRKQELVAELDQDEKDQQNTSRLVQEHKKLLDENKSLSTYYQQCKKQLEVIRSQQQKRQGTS

[10] = molecular target: Interleukin-1 receptor-associated kinase 4 (Homo sapiens) (UniProt Q9NWZ3); assay: Inhibition of human IRAK4 (14 to 460 residues) assessed as enzyme activity at 1 uM using 33P ATP by radioactive filter binding assay; parameters: scale not given: the % may be the effect or the level left
[11] = molecular target: Serine/threonine-protein kinase tousled-like 1 (Homo sapiens) (UniProt Q9UKI8); assay: Inhibition of human TLK1 (1 to 766 residues) assessed as enzyme activity at 1 uM using 33P ATP by radioactive filter binding assay; parameters: scale not given: the % may be the effect or the level left
[12] = molecular target: Ephrin type-B receptor 1 (Homo sapiens) (UniProt P54762); assay: Inhibition of human EPHB1 (565 to 984 residues) assessed as enzyme activity at 1 uM using 33P ATP by radioactive filter binding assay; parameters: scale not given: the % may be the effect or the level left
[13] = molecular target: NUAK family SNF1-like kinase 1 (Homo sapiens) (UniProt O60285); assay: Inhibition of human NUAK1 (2 to 660 residues) assessed as enzyme activity at 1 uM using 33P ATP by radioactive filter binding assay; parameters: scale not given: the % may be the effect or the level left
NUAK family SNF1-like kinase 1 (Homo sapiens), sequence (O60285 whole entry, the tested form may be a part): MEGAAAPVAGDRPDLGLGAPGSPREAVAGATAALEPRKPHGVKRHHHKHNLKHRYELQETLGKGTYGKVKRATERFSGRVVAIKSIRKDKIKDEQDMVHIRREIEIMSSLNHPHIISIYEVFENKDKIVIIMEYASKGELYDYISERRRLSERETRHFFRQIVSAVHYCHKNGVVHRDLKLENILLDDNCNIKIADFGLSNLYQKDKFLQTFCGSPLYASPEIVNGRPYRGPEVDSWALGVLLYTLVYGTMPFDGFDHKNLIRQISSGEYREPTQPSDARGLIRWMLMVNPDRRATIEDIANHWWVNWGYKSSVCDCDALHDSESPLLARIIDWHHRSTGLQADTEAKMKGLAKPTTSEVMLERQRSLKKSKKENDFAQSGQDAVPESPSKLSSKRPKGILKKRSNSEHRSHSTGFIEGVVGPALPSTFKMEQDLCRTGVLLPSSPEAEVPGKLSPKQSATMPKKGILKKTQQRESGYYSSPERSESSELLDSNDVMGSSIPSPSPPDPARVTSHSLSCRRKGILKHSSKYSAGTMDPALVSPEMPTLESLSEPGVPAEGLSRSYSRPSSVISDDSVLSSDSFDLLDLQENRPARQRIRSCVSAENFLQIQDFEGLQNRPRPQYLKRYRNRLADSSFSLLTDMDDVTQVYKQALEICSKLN

[14] = molecular target: Serine/threonine-protein kinase 33 (Homo sapiens) (UniProt Q9BYT3); assay: Inhibition of human STK33 (1 to 514 residues) assessed as enzyme activity at 1 uM using 33P ATP by radioactive filter binding assay; parameters: scale not given: the % may be the effect or the level left
[15] = molecular target: Serine/threonine-protein kinase MARK1 (Homo sapiens) (UniProt Q9P0L2); assay: Inhibition of human MARK1 (2 to 795 residues) assessed as enzyme activity at 1 uM using 33P ATP by radioactive filter binding assay; parameters: scale not given: the % may be the effect or the level left
[16] = molecular target: Calcium/calmodulin-dependent protein kinase kinase 1 (Homo sapiens) (UniProt Q8N5S9); assay: Inhibition of CAMKK1 (unknown origin) assessed as enzyme activity at 1 uM using 33P ATP by radioactive filter binding assay; parameters: scale not given: the % may be the effect or the level left
[17] = molecular target: Misshapen-like kinase 1 (Homo sapiens) (UniProt Q8N4C8); assay: Inhibition of human MINK1 (1 to 320 residues) assessed as enzyme activity at 1 uM using 33P ATP by radioactive filter binding assay; parameters: scale not given: the % may be the effect or the level left
[18] = molecular target: Tyrosine-protein kinase ZAP-70 (Homo sapiens) (UniProt P43403); assay: Inhibition of human ZAP70 (1 to 619 residues) assessed as enzyme activity at 1 uM using 33P ATP by radioactive filter binding assay; parameters: scale not given: the % may be the effect or the level left
[19] = molecular target: Mitogen-activated protein kinase 1 (Homo sapiens) (UniProt P28482); assay: Inhibition of human ERK2 (2 to 360 residues) assessed as enzyme activity at 1 uM using 33P ATP by radioactive filter binding assay; parameters: scale not given: the % may be the effect or the level left
Mitogen-activated protein kinase 1 (Homo sapiens), sequence (P28482 whole entry, the tested form may be a part): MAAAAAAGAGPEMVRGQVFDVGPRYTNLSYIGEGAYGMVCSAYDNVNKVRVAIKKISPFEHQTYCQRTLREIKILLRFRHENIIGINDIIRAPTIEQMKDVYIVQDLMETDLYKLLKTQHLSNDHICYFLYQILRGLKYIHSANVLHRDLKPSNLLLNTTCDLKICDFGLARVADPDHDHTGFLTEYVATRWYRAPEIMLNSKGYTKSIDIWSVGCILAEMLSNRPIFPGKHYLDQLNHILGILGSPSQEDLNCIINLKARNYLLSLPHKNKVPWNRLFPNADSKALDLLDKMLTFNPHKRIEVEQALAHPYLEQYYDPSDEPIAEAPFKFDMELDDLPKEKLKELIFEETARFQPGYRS

[20] = molecular target: Mitogen-activated protein kinase kinase kinase 1 (Homo sapiens) (UniProt Q13233); assay: Inhibition of human MEKK1 (877 to 1563 residues) assessed as enzyme activity at 1 uM using 33P ATP by radioactive filter binding assay; parameters: scale not given: the % may be the effect or the level left
[21] = molecular target: Tyrosine-protein kinase JAK2 (Homo sapiens) (UniProt O60674); assay: Inhibition of JAK2 (unknown origin) assessed as enzyme activity at 1 uM using 33P ATP by radioactive filter binding assay; parameters: scale not given: the % may be the effect or the level left
[22] = molecular target: Interleukin-1 receptor-associated kinase 1 (Homo sapiens) (UniProt P51617); assay: Inhibition of human IRAK1 (1 to 712 residues) assessed as enzyme activity at 1 uM using 33P ATP by radioactive filter binding assay; parameters: scale not given: the % may be the effect or the level left
[23] = molecular target: Aurora kinase A (Homo sapiens) (UniProt O14965); assay: Inhibition of human Aurora A (2 to 403 residues) assessed as enzyme activity at 1 uM using 33P ATP by radioactive filter binding assay; parameters: scale not given: the % may be the effect or the level left
Aurora kinase A (Homo sapiens), sequence (O14965 whole entry, the tested form may be a part): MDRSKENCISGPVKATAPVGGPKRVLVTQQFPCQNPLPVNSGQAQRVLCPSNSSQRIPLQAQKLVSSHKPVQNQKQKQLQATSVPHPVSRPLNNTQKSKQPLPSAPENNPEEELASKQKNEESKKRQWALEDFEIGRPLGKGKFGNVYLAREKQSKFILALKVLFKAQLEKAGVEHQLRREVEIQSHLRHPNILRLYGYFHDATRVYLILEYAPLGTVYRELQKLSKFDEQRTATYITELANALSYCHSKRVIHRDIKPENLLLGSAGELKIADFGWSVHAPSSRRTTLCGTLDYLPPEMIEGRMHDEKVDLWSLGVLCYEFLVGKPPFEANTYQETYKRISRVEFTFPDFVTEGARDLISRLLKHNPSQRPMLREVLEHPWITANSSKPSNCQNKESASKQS

[24] = molecular target: Ribosomal protein S6 kinase alpha-1 (Homo sapiens) (UniProt Q15418); assay: Inhibition of human RSK1 (1 to 735 residues) assessed as enzyme activity at 1 uM using 33P ATP by radioactive filter binding assay; parameters: scale not given: the % may be the effect or the level left
[25] = molecular target: Ephrin type-B receptor 2 (Homo sapiens) (UniProt P29323); assay: Inhibition of human EPHB2 (560 to 987 residues) assessed as enzyme activity at 1 uM using 33P ATP by radioactive filter binding assay; parameters: scale not given: the % may be the effect or the level left
Ephrin type-B receptor 2 (Homo sapiens), sequence (P29323 whole entry, the tested form may be a part): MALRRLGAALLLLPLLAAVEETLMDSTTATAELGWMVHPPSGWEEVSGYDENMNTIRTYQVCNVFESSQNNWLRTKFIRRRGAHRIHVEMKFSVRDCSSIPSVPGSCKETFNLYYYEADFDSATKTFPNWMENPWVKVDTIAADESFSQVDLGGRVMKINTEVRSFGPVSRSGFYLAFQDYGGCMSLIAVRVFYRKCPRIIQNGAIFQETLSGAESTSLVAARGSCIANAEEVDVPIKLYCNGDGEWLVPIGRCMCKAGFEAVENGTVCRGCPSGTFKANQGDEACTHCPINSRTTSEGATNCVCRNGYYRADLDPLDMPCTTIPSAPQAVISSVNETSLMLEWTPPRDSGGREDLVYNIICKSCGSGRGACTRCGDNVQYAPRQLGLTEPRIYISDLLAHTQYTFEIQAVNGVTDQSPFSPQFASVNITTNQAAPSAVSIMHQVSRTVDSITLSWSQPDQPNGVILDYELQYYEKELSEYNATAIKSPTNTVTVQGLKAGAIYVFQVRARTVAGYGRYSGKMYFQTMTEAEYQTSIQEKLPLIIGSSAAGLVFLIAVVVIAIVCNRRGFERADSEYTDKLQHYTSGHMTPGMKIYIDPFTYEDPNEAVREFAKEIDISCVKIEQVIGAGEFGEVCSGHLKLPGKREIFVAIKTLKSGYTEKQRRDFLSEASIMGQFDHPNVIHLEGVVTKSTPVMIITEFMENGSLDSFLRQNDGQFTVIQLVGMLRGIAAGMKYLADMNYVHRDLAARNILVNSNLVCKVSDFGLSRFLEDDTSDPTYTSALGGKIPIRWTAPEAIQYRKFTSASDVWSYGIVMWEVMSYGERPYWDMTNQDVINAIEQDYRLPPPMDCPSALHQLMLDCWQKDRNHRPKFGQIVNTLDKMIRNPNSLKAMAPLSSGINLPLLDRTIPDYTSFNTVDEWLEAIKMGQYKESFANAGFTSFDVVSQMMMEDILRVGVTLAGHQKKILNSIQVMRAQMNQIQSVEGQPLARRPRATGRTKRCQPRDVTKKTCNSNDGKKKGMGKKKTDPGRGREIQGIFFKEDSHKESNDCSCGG

[26] = molecular target: Receptor tyrosine-protein kinase erbB-4 (Homo sapiens) (UniProt Q15303); assay: Inhibition of human HER4 (706 to 991 residues) assessed as enzyme activity at 1 uM using 33P ATP by radioactive filter binding assay; parameters: scale not given: the % may be the effect or the level left
[27] = molecular target: Serine/threonine-protein kinase MARK2 (Homo sapiens) (UniProt Q7KZI7); assay: Inhibition of human MARK2 (2 to 691 residues) assessed as enzyme activity at 1 uM using 33P ATP by radioactive filter binding assay; parameters: scale not given: the % may be the effect or the level left
Serine/threonine-protein kinase MARK2 (Homo sapiens), sequence (Q7KZI7 whole entry, the tested form may be a part): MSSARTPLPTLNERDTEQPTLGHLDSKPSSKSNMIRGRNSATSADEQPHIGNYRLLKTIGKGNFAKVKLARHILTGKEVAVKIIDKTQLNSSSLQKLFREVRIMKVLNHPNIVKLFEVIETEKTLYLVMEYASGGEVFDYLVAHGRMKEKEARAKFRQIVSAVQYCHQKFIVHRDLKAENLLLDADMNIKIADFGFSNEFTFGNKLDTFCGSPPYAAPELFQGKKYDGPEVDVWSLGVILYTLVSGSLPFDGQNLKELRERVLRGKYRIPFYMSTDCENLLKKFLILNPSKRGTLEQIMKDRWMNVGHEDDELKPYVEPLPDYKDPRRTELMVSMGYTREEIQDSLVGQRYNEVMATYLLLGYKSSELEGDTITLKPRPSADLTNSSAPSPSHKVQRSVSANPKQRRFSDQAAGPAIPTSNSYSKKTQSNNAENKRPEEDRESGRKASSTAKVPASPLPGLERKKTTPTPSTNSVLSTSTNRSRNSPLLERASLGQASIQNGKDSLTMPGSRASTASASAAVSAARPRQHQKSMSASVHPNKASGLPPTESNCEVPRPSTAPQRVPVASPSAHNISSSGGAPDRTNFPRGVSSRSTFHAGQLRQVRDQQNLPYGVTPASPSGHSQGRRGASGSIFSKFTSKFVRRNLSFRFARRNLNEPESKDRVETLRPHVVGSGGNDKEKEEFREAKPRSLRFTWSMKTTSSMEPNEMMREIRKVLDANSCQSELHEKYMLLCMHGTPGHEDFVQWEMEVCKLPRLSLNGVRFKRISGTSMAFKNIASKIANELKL

[28] = molecular target: Serine/threonine-protein kinase BRSK1 (Homo sapiens) (UniProt Q8TDC3); assay: Inhibition of human BRSK1 (2 to 778 residues) assessed as enzyme activity at 1 uM using 33P ATP by radioactive filter binding assay; parameters: scale not given: the % may be the effect or the level left
Serine/threonine-protein kinase BRSK1 (Homo sapiens), sequence (Q8TDC3 whole entry, the tested form may be a part): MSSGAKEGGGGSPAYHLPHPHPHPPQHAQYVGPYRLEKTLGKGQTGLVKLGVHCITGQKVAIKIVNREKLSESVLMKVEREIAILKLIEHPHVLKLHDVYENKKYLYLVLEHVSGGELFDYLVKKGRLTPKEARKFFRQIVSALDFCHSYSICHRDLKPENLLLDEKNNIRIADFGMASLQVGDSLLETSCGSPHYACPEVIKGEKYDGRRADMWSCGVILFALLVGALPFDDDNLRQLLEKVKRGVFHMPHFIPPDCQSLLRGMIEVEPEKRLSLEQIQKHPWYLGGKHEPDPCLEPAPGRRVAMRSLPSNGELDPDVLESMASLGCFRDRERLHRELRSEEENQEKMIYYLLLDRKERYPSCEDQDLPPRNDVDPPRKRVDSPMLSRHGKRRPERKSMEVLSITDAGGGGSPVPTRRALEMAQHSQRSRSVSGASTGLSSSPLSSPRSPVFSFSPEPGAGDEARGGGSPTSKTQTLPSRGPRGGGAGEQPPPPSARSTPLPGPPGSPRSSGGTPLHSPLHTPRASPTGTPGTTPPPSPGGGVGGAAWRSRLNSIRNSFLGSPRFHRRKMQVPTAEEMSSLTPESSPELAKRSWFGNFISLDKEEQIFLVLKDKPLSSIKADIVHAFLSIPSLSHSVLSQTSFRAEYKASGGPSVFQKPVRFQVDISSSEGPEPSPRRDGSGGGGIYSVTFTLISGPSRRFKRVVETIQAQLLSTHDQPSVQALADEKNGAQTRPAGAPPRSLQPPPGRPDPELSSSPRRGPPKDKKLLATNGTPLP

solubility [1]: > 1000 µg/mL
Structure (SMILES): CCCCc1cc(-c2c[nH]c3ncccc23)nc(N)n1

Ratio [2]: 37
Activity (MAPK3 (ERK1)): -32%
Ratio IC50 (Homo sapiens): 65
Structure (SMILES): CCCCc1cc(-c2c[nH]c3ncc(-c4cnn(C5CCNCC5)c4)cc23)nc(N)n1

inhibition [3]: 80%
Structure (SMILES): CCc1cc(-c2c[nH]c3ncc(-c4cnn(C5CCNCC5)c4)cc23)nc(N)n1

Activity [4]: 1%
Activity [5]: -75%
Activity [6]: -9%
Activity [7]: -34%
Activity [8]: -3%
Activity [9]: -82%
Activity [10]: -36%
Activity [11]: -14%
Activity [12]: -10%
Activity [13]: -31%
Activity [14]: -23%
Activity [15]: -26%
Activity [16]: -33%
Activity [17]: -78%
Activity [18]: -3%
Activity [19]: -14%
Activity [20]: -10%
Activity [21]: -25%
Activity [22]: -49%
Activity [23]: 1%
Activity [24]: -69%
Activity [25]: 15%
Activity [26]: -17%
Activity [27]: -23%
Activity [28]: -4%
Structure (SMILES): Nc1nccc(-c2c[nH]c3ncccc23)n1 [MERIOLIN 1]
